Data: PubChem BioAssay (NCI)
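Results reflect a 48-hour exposure of cells in 96-well plates to compound at five concentrations. At the TGI there is no net growth.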

Columns and labels:
Assay in all cases: inhibition of tumour cell growth, NCI panel, 48 h
[1] = test system: K-562 leukemia
[2] = test system: HOP-92 NSCLC
[3] = test system: SF-295 CNS
[4] = test system: HOP-62 NSCLC
[5] = test system: SR leukemia
[6] = test system: SN12C renal
[7] = test system: SNB-75 CNS
[8] = test system: NCI-H226 lung
[9] = test system: SNB-19 CNS
[10] = test system: OVCAR-5 ovarian
[11] = test system: U251 CNS
[12] = test system: SW-620 colon
[13] = test system: CCRF-CEM leukemia
[14] = test system: 786-0 renal
[15] = test system: EKVX NSCLC
[16] = test system: HL-60(TB) leukemia
[17] = test system: BT-549 breast
[18] = test system: UACC-257 melanoma
[19] = test system: MALME-3M melanoma
[20] = test system: TK-10 renal
[21] = test system: COLO 205 colon
[22] = test system: NCI-H460 lung
[23] = test system: NCI-H522 lung
[24] = test system: HT29 colon
[25] = test system: NCI/ADR-RES ovarian
[26] = test system: HCT-15 colon
[27] = test system: HCT-116 colon
[28] = test system: DU-145 prostate
[29] = test system: SK-OV-3 ovarian
[30] = test system: MOLT-4 leukemia
[31] = test system: MCF7 breast
[32] = test system: T-47D breast
[33] = test system: PC-3 prostate
[34] = test system: MDA-MB-435
[35] = test system: A549 NSCLC
[36] = test system: M14 melanoma
[37] = test system: SF-539 CNS
[38] = test system: A498 renal
[39] = test system: UACC-62 melanoma
[40] = test system: SF-268 CNS
[41] = test system: HS 578T breast
[42] = test system: SK-MEL-2 melanoma
[43] = test system: OVCAR-4 ovarian
[44] = test system: MDA-MB-231 breast
[45] = test system: SK-MEL-28 melanoma
[46] = test system: LOX IMVI melanoma
[47] = test system: OVCAR-8 ovarian
[48] = test system: RPMI-8226 leukemia
[49] = test system: MDA-N
[50] = test system: OVCAR-3 ovarian
[51] = test system: IGROV1 ovarian
[52] = test system: UO-31 renal
[53] = test system: HCC-2998 colon
[54] = test system: KM12 colon
[55] = test system: SK-MEL-5 melanoma
[56] = test system: NCI-H23 lung
[57] = test system: CAKI-1 renal
[58] = test system: ACHN renal
[59] = test system: RXF 393 renal

C=C(CC[C@@H](C)[C@H]1CC[C@H]2[C@@H]3C[C@@H](O)[C@H]4C[C@@H](O)CC[C@]4(CO)[C@H]3CC[C@]12C)C(C)C
TGI [1]: 6.92 µM | TGI [2]: 15.5 µM | TGI [3]: 17.1 µM | TGI [4]: 14.8 µM | TGI [5]: 9.77 µM | TGI [6]: 12.6 µM | TGI [7]: 15.1 µM | TGI [8]: 18.4 µM | TGI [9]: 15.3 µM | TGI [10]: 13.3 µM | TGI [11]: 13 µM | TGI [12]: 16.5 µM | TGI [13]: 10.5 µM | TGI [14]: 11.1 µM | TGI [15]: 4.34 µM | TGI [16]: 14.9 µM | TGI [17]: 15 µM | TGI [18]: 14.8 µM | TGI [19]: 12.8 µM | TGI [20]: 5.47 µM | TGI [21]: 15.8 µM | TGI [22]: 7.14 µM | TGI [23]: 11.1 µM | TGI [24]: 7.91 µM | TGI [25]: 12.2 µM | TGI [26]: 8.27 µM | TGI [27]: 8.91 µM | TGI [28]: 10 µM | TGI [29]: 16.3 µM | TGI [30]: 10.8 µM | TGI [31]: 9.53 µM | TGI [32]: 8.47 µM | TGI [33]: 10.8 µM | TGI [34]: 14.2 µM | TGI [35]: 11.1 µM | TGI [36]: 14.7 µM | TGI [37]: 20.6 µM | TGI [38]: 13.3 µM | TGI [39]: 15 µM | TGI [40]: 12.6 µM | TGI [41]: 12.4 µM | TGI [42]: 13.9 µM | TGI [43]: 13.4 µM | TGI [44]: 10.4 µM | TGI [45]: 10.3 µM | TGI [46]: 9 µM | TGI [47]: 12.5 µM | TGI [48]: 11.6 µM | TGI [49]: 15.6 µM | TGI [50]: 8.77 µM | TGI [51]: 12.6 µM | TGI [52]: 11.1 µM | TGI [53]: 6.33 µM | TGI [54]: 8.01 µM | TGI [55]: 15.9 µM | TGI [56]: 12 µM | TGI [57]: 11.8 µM | TGI [58]: 12 µM | TGI [59]: 8.42 µM

CC(C)(C)c1cc(C(C)(C)C)c2c(c1O)OC(=O)CS2
TGI [1]: 40.6 µM | TGI [2]: > 47.7 µM | TGI [3]: 18.8 µM | TGI [4]: 32.6 µM | TGI [5]: > 48.7 µM | TGI [6]: 21.8 µM | TGI [7]: 6.84 µM | TGI [8]: 26.3 µM | TGI [9]: 21.5 µM | TGI [10]: 41 µM | TGI [11]: 17.9 µM | TGI [12]: 37.7 µM | TGI [13]: > 25.3 µM | TGI [14]: 28.5 µM | TGI [15]: 25.6 µM | TGI [16]: 10.7 µM | TGI [17]: 23.9 µM | TGI [18]: > 66.7 µM | TGI [19]: > 93.7 µM | TGI [20]: 21.7 µM | TGI [21]: 9.89 µM | TGI [22]: 9.13 µM | TGI [23]: 14.3 µM | TGI [24]: 21.5 µM | TGI [25]: 20.6 µM | TGI [26]: 14.9 µM | TGI [27]: 13.4 µM | TGI [28]: 51.6 µM | TGI [29]: > 95.1 µM | TGI [30]: > 45.8 µM | TGI [31]: > 31.2 µM | TGI [32]: 22.9 µM | TGI [33]: > 64.7 µM | TGI [34]: 20.1 µM | TGI [35]: > 68.2 µM | TGI [36]: 41.2 µM | TGI [37]: 12.5 µM | TGI [38]: 66.9 µM | TGI [39]: 5.11 µM | TGI [40]: 23.2 µM | TGI [41]: 20 µM | TGI [42]: 28.1 µM | TGI [43]: > 74.6 µM | TGI [44]: 52.4 µM | TGI [45]: > 54.5 µM | TGI [46]: 24 µM | TGI [47]: > 78 µM | TGI [48]: > 100 µM | TGI [49]: 14.8 µM | TGI [50]: 18.1 µM | TGI [51]: > 60.2 µM | TGI [52]: 20.5 µM | TGI [53]: 14 µM | TGI [54]: 17.8 µM | TGI [55]: 9.77 µM | TGI [56]: 18.1 µM | TGI [57]: > 62.7 µM | TGI [58]: > 41 µM | TGI [59]: 13.7 µM

Cc1ccc(C(=O)CCl)o1
TGI [1]: > 10 µM | TGI [2]: > 10 µM | TGI [3]: > 10 µM | TGI [4]: > 10 µM | TGI [5]: > 10 µM | TGI [6]: > 10 µM | TGI [7]: > 10 µM | TGI [8]: > 10 µM | TGI [9]: > 10 µM | TGI [10]: > 9.57 µM | TGI [11]: > 10 µM | TGI [12]: 5 µM | TGI [13]: > 7.83 µM | TGI [14]: 9.71 µM | TGI [15]: > 10 µM | TGI [16]: 4.22 µM | TGI [17]: > 10 µM | TGI [18]: > 10 µM | TGI [19]: > 8.31 µM | TGI [20]: > 10 µM | TGI [21]: > 8.18 µM | TGI [22]: > 10 µM | TGI [23]: > 5.46 µM | TGI [24]: > 10 µM | TGI [25]: > 10 µM | TGI [26]: > 10 µM | TGI [27]: 6.62 µM | TGI [28]: > 10 µM | TGI [29]: > 10 µM | TGI [30]: 5.68 µM | TGI [31]: > 10 µM | TGI [32]: > 7.79 µM | TGI [33]: > 10 µM | TGI [34]: > 10 µM | TGI [35]: > 10 µM | TGI [36]: > 10 µM | TGI [37]: > 10 µM | TGI [38]: > 10 µM | TGI [39]: > 10 µM | TGI [40]: > 10 µM | TGI [41]: > 10 µM | TGI [42]: > 10 µM | TGI [43]: > 10 µM | TGI [44]: > 10 µM | TGI [45]: > 10 µM | TGI [46]: 8.76 µM | TGI [47]: > 6.61 µM | TGI [48]: 5.42 µM | TGI [49]: > 10 µM | TGI [50]: > 10 µM | TGI [51]: > 10 µM | TGI [52]: > 6.21 µM | TGI [53]: > 10 µM | TGI [54]: > 10 µM | TGI [55]: > 10 µM | TGI [56]: > 10 µM | TGI [57]: > 7.23 µM | TGI [58]: > 10 µM | TGI [59]: > 10 µM

Cc1cc2c(C(C)C)c(O)c(O)c(C=NCC3CCCN4CCCCC34)c2cc1-c1cc2c(C=NCC3CCCN4CCCCC34)c(O)c(O)c(C(C)C)c2cc1C (stereo unspecified)
TGI [1]: 38.2 µM | TGI [2]: > 100 µM | TGI [3]: 25.9 µM | TGI [4]: > 38.7 µM | TGI [5]: > 100 µM | TGI [6]: 17.1 µM | TGI [7]: 31.3 µM | TGI [8]: 43.2 µM | TGI [9]: 69.9 µM | TGI [10]: 38.8 µM | TGI [11]: 21.5 µM | TGI [12]: > 56.1 µM | TGI [13]: 7.75 µM | TGI [14]: > 67.9 µM | TGI [15]: 31.8 µM | TGI [16]: 9.62 µM | TGI [17]: 36.4 µM | TGI [18]: 51.9 µM | TGI [19]: 30.2 µM | TGI [20]: 32.5 µM | TGI [21]: 12.3 µM | TGI [22]: 38.7 µM | TGI [23]: 11.3 µM | TGI [24]: 13.3 µM | TGI [25]: 20.6 µM | TGI [26]: 41.3 µM | TGI [27]: > 100 µM | TGI [28]: > 64.3 µM | TGI [29]: 18.1 µM | TGI [30]: 20 µM | TGI [31]: 37 µM | TGI [32]: > 31 µM | TGI [33]: 26.3 µM | TGI [34]: 25.8 µM | TGI [35]: > 75.1 µM | TGI [36]: 33.9 µM | TGI [37]: 85.9 µM | TGI [38]: > 61.7 µM | TGI [39]: 39.3 µM | TGI [40]: 19.1 µM | TGI [41]: 54.5 µM | TGI [42]: 31.5 µM | TGI [43]: 43.3 µM | TGI [44]: 14.7 µM | TGI [45]: 39.5 µM | TGI [46]: > 49.1 µM | TGI [47]: 19 µM | TGI [48]: 58.5 µM | TGI [49]: 20.9 µM | TGI [50]: 29 µM | TGI [51]: 21.6 µM | TGI [52]: > 45.5 µM | TGI [53]: 46.3 µM | TGI [54]: 17.7 µM | TGI [55]: 15.5 µM | TGI [56]: 27.1 µM | TGI [57]: 14.6 µM | TGI [58]: 17.9 µM | TGI [59]: 22.6 µM
